For one assay, the system named is elastase B production. As to the kind of experiment: microbe, parasite or virus in culture. The class given is cell-based, Pseudomonas aeruginosa. Particulars: for inhibition at 200 µM: Pseudomonas aeruginosa, PAO1, read-out: elastase B production inhibition; for elastase B production inhibition: Example 2, concentration not stated (20 or 200 tested). The method, then: Elastase B production assay in P. aeruginosa. Elastase B activity in P. aeruginosa was measured according to a previously reported method, with the following modifications. P. aeruginosa PAO1 was grown overnight in LB media at 37° C., after which it was diluted to an OD600=0.1. Portions (2 mL) of this culture was added to test tubes containing synthetic compounds to give final concentrations of 20 μM or 200 μM and incubated for 12-14 h at 37° C. with 200 rpm shaking. The OD600 was measured for each tube, after which the contents of the tubes were filtered through a […] Whatman filter to remove all cellular matter. A 100 μL-aliquot of the supernatant was added to 900 μL of an Elastin Congo Red Solution (5 mg of Elastin Congo red substrate per 1 mL of 100 mM Tris-HCl, 1 mM CaCl2 (pH 7.2)) and incubated for 12 h at 37° C. with 250 rpm shaking. The contents of these tubes were then filtered in order to remove unreacted Elastin Congo red substrate. Elastase B activity was then calculated (normalized) by dividing the absorbance of the cleaved Congo red (OD492) by the cell density (OD600 of the cells before first filtration).
Elastase B production assay in P. aeruginosa. Elastase B activity in P. aeruginosa was measured according to a previously reported method, with the following modifications. P. aeruginosa PAO1 was grown overnight at 37° C. and then diluted 1:10 with fresh LB medium. Portions (2 mL) of this culture were added to test tubes containing synthetic compounds to give final compound concentrations of 20 μM or 200 μM. The tubes were incubated for 12-14 h at 37° C. The OD600 was measured for each tube, after which the contents of the tubes were filtered through a 0.2 μm Whatman filter to remove all cellular matter. A 100 μL aliquot of the supernatant was added to 900 μL of an elastin-Congo red solution (5 mg of elastin-Congo red substrate per 1 mL of buffer (100 mM Tris-HCl, 1 mM CaCl2, pH 7.2)) and incubated for 12 h at 37° C. with 250 rpm shaking. The contents of these tubes were then filtered in order to remove unreacted elastin-Congo red substrate, and the supernatant containing cleaved Congo red was isolated. A 200 μL aliquot of the supernatant was added to a 96-well multititer plate, and the OD492 was measured. Elastase B activity was calculated by dividing the absorbance of the cleaved Congo red solution (OD492) by the cell density (OD600 of the cells before first filtration).

The next assay has as its target T1, LasR (Pseudomonas aeruginosa, UniProt P25084).
T1 construct: expressed in transfected cells; host or cells: E. coli DH5α (pJN105L pSC11), arabinose-induced
As to the kind of experiment: cell-based. Particulars: for E. coli-LasR Activation [%]: 5 μM ligand; for E. coli-LasR Activation [%] / activation at 5 µM: E. coli DH5α (pJN105L pSC11), normalized to OdDHL; for activation at 5 µM: read-out: E. coli-LasR Activation [%], 5 μM ligand. In short, it runs like this:
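E. coli DH5α carrying pJN105L/pSC11 grown to OD600 0.3, LasR expression induced with arabinose (4 mg/mL), then incubated with AHLs at 37 °C to OD600 0.45. LasR activity read by β-galactosidase reporter assay; IC50/EC50 from sigmoidal dose-response fits.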

A further assay addresses T2, LuxR (Aliivibrio fischeri, UniProt P35327).
T2 construct: a Δ-luxI derivative of V. fischeri ES114, in which the native lux operon behaves as the bioluminescent reporter; endogenous in cells; host or cells: V. fischeri ES114 (Δ-luxI)
The assay is described as follows: cell-based. The arrangement: species or system Vibrio fischeri. Particulars: for V. fischeri-LuxR Activation [%]: 200 μM ligand; for V. fischeri-LuxR Activation [%] / activation at 200 µM: normalized to OHHL; for activation at 200 µM: read-out: V. fischeri-LuxR Activation [%], 200 μM ligand. In a few lines:
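Whole-cell luminescence reporter in V. fischeri ES114 (WT, Δ-luxI or Δ-luxR) or E. coli, overnight cultures diluted 1:10 and grown with compound at RT (E. coli 30° C) to OD600 0.35-0.4 (4-6 h). Luminescence normalized to cell density, triplicates; EC50/IC50 from sigmoidal fit.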

“Also recorded” adds a separate entry of the source.

The results in this text go back to patent US7910622B2, “Modulation of bacterial quorum sensing with synthetic ligands” (Wisconsin Alumni Research Foundation, priority 2007, dated 2011).

By inhibition is commonly meant the change of the read-out against control, counted positive when it falls. For orientation: EC50 means the concentration at which the effect is half-maximal.

T1 sequence (P25084 whole entry): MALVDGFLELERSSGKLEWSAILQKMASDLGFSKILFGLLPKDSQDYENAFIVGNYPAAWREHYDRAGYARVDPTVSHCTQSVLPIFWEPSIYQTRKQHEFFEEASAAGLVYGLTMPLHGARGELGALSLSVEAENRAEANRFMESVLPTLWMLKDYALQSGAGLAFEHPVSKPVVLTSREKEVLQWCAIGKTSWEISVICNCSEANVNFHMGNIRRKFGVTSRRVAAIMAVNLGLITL
T2 sequence (P35327 whole entry): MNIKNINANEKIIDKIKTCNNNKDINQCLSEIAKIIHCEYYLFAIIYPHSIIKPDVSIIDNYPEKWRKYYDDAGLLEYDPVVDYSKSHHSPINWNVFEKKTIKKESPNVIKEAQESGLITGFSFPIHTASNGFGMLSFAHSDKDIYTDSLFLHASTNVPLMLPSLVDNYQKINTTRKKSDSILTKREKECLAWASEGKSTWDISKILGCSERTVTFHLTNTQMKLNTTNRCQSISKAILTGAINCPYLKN

In the case of `O=C(Cc1ccc(Br)cc1)N[C@H]1CCOC1=O` [compound 8, N-(4-bromo-phenylacetanoyl)-L-homoserine lactone, reference compound], the inhibition at 200 µM with elastase B production came to 77%. Also, on LasR, the “E. coli-LasR Activation [%]” value came to 0%. For the same compound, the “V. fischeri-LuxR Activation [%]” value on LuxR (V. fischeri ES114 (Δ-luxI)) was 3%.
With `O=C(Cc1ccc(Br)cc1)N[C@H]1CCOC1=O` [A17, 4-bromo-phenylacetanoyl HL, reference compound], the “elastase B production inhibition” value in the assay with elastase B production (P. aeruginosa PAO1) is given as “ca. 76%”. Also, the activation at 5 µM at LasR is 0%. For the same compound, the activation at 200 µM on LuxR (V. fischeri ES114 (Δ-luxI)) came to 3%.
Consider `O=C(Cc1ccc(-c2ccccc2)cc1)N[C@H]1CCOC1=O` [C18, 4-phenyl PHL], for which the inhibition at 200 µM in the assay on elastase B production came to 4%. In addition, the “Activation (%)” value at LasR (E. coli-LasR, Library C primary agonism screen) came out at 0%; at LuxR (V. fischeri-LuxR, Library C primary agonism screen), 7%. At LasR, the activation at 5 µM came to 0%. Moreover, on LuxR (V. fischeri ES114 (Δ-luxI)), the activation at 200 µM worked out at 7%.
In the case of `O=C(CCCc1c[nH]c2ccccc12)N[C@H]1CCOC1=O` [A18, indole AHL, reference compound], in the assay on elastase B production (P. aeruginosa PAO1), the “elastase B production inhibition” value was ~67%. Besides, on LasR, the “E. coli-LasR Activation [%]” value is 3%. On LuxR (V. fischeri ES114 (Δ-luxI)), the “V. fischeri-LuxR Activation [%]” value is recorded as 3%.
For 3-nitro PHL [B17], the “activation of elastase B production at high concentration” value in the assay on elastase B production (P. aeruginosa PAO1, 10-fold higher concentration (200 vs 20)) is “activate elastase B production; also recorded: capable of both inhibiting and activating elastase B production”. In addition, the “E. coli-LasR Activation [%]” value at LasR was determined as 11%. The EC50 on LuxR (V. fischeri ES114 (Δ-luxI), read-out: LuxR EC50) worked out at 350 nM. Also, the “luminescence induced higher than native ligand OHHL” value at LuxR (primary agonism assay, 200 μM, same concentration as OHHL) was 29%.
Consider `O=C(Cc1ccc(-c2ccccc2)cc1)NC1CCOC1=O` (stereo not drawn) [B21, 4-phenyl PHL], for which, in the assay with elastase B production (P. aeruginosa PAO1), the “elastase B production inhibition” value is “poorly antagonized elastase B production”. Also, on LasR, the activation at 5 µM is 0%. For the same compound, the activation at 200 µM on LuxR (V. fischeri ES114 (Δ-luxI)) turned out to be 7%.
